# Measurements: patent publication US6344476B1, “Inhibition of p38 kinase activity by aryl ureas” (Bayer Corporation, priority 1997, dated 2002)
row,SMILES,melting point
1,"COC(=O)c1sc(C(C)C)cc1NC(=O)Nc1ccccc1 [Example 1, N-(2-carbomethoxy-5-isopropyl-3-thienyl)-N′-(phenyl)urea]",108 to 110 °C
2,"COC(=O)c1sc(C(C)(C)C)cc1NC(=O)Nc1cccc(C)c1 [Example 9, N-(2-Carbomethoxy-5-tert-butyl-3-thienyl)-N′-(3-methylphenyl)urea]",70 to 72 °C
3,"COC(=O)c1sc(C(C)(C)C)cc1NC(=O)Nc1ccc(C)s1 [Example 14, N-(2-Carbomethoxy-5-tert-butyl-3-thienyl)-N′-(5-methyl-2-thienyl)urea]",118 to 120 °C
4,"CNC(=O)c1sc(C(C)(C)C)cc1NC(=O)Nc1ccc(C)cc1 [Example 22, N-(2-methylcarbamoyl-5-tert-butyl-3-thienyl)-N′-(4-methylphenyl)urea]",202 to 204 °C
5,"CCc1ccc(NC(=O)Nc2cc(C(C)(C)C)sc2C(=O)NC)cc1 [Example 23, N-(2-Methylcarbamoyl-5-tert-butyl-3-thienyl)-N′-(4ethylphenyl)urea]",101 to 104 °C
6,"CNC(=O)c1sc(C(C)(C)C)cc1NC(=O)Nc1ccc(C(C)C)cc1 [Example 24, N-(2-Methylcarbamoyl-5-tert-butyl-3-thienyl)-N′-(4-isopropylphenyl)urea]",113 to 120 °C
7,"CNC(=O)c1sc(C(C)(C)C)cc1NC(=O)Nc1ccc(F)cc1 [Example 25, N-(2-methylcarbamoyl-5-tert-butyl-3-thienyl)-N′-(4-fluorophenyl)urea]",203 to 204 °C
8,"CNC(=O)c1sc(C(C)(C)C)cc1NC(=O)Nc1ccc(C)cc1C [Example 27, N-(2-Methylcarbamoyl-5-tert-butyl-3-thienyl)-N′-(2,4-dimethylphenyl)urea]",195 to 196 °C
9,"CNC(=O)c1sc(C(C)(C)C)cc1NC(=O)Nc1ccc(C)c(Cl)c1 [Example 28, N-(2-Methylcarbamoyl-5-tert-butyl-3-thienyl)-N′-(3-chloro-4-methylphenyl)urea]",178 to 179 °C
10,"CNC(=O)c1sc(C(C)(C)C)cc1NC(=O)Nc1ccc(C)c(F)c1 [Example 29, N-(2-Methylcarbamoyl-5-tert-butyl-3-thienyl)-N′-(3-fluoro4-methylphenyl)urea]",182 to 183 °C
11,"CNC(=O)c1sc(C(C)(C)C)cc1NC(=O)Nc1ccc(F)c(Cl)c1 [Example 30, N-(2-Methylcarbamoyl-5-tert-butyl-3-thienyl)-N′-(3chloro-4-fluorophenyl)urea]",203 to 204 °C
12,"COC(=O)c1oc(C(C)(C)C)cc1NC(=O)Nc1ccc(C)cc1 [Example 32, N-(2-carbomethoxy-5-tert-butyl-3-furyl)-N′-(4-methylphenyl)urea]",78 to 79 °C
13,"COC(=O)c1oc(C(C)(C)C)cc1NC(=O)Nc1cccc(Cl)c1Cl [Example 34, N-(2-Carbomethoxy-5-tert-butyl-3-furyl)-N′-(2,3-dichlorophenyl)urea]",195 to 197 °C
14,"CNC(=O)c1oc(C(C)(C)C)cc1NC(=O)Nc1ccc(F)cc1 [Example 36, N-(2-methylcarbamoyl-5-tert-butyl-3-furyl)-N′-(4-fluorophenyl)urea]",109 to 111 °C
15,"COC(=O)c1[nH]c(C(C)(C)C)cc1NC(=O)Nc1ccccc1 [Example 37, N-(2-Carbomethoxy-5-tert-butyl-3-pyrrolyl)-N′-(phenyl)urea]",262 to 263 °C (dec.)
16,"COC(=O)c1[nH]c(C(C)(C)C)cc1NC(=O)Nc1ccc(C)cc1 [Example 38, N-(2carbomethoxy-5-tert-butyl-3-pyrrolyl)-N′-(4-methyl-phenyl)urea]",257 to 258 °C
17,"COC(=O)c1c(NC(=O)Nc2ccc(C)cc2)cc(C(C)(C)C)n1C [Example 40, N-(N-methyl-2-carbomethoxy-5-tert-butyl-3-pyrrolyl)-N′-(4-methylphenyl)urea]",171 to 172 °C
18,"COC(=O)c1cc(C(C)C)sc1NC(=O)Nc1ccccc1 [Example 41, N-(3-Carbomethoxy-5-isopropyl-2-thienyl)-N′-(phenyl)urea]",64 to 65 °C
19,"COC(=O)c1cc(C(C)C)sc1NC(=O)Nc1ccc(C)cc1 [Example 42, N-(3-carbomethoxy-5-isopropyl-2-thienyl)-N′-(4-methylphenyl)urea]",49 to 51 °C
20,"COC(=O)c1cc(C(C)(C)C)sc1NC(=O)Nc1ccccc1 [Example 43, N-(3-Carbomethoxy-5-tert-butyl-2-thienyl)-N′-(phenyl)urea]",80 to 82 °C
21,"COC(=O)c1cc(C(C)(C)C)sc1NC(=O)Nc1ccc(C)cc1 [Example 44, N-(3-carbomethoxy-5-tert-butyl-2-thienyl)-N′-(4-methylphenyl)urea]",109 to 111 °C
22,"CC(=O)NCc1sc(C(C)(C)C)cc1NC(=O)Nc1ccc(C)cc1 [Example 50, N-(2-(N-Acetylaminomethyl)-5-tert-butyl-3-thienyl)-N′-(4-methylphenyl)urea]",203 to 205 °C
23,"Cc1ccc(NC(=O)Nc2cc(C(C)(C)C)sc2CNC(=O)CN)cc1 [Example 51, N-(2-(N-glycylaminomethyl)-5-tert-butyl-3-thienyl)-N′-(4-methylphenyl)urea]",93 to 96 °C
24,"Cc1ccc(NC(=O)Nc2cc(C(C)(C)C)sc2CNC(=O)CNC(=O)OC(C)(C)C)cc1 [Example 52, N-(2-(N-(N-carbo-tert-butoxyglycyl)aminomethyl)-5-tert-butyl-3-thienyl)-N′-(4-methylphenyl)urea]",174 to 176 °C
25,"COC(=O)c1sc(C(C)(C)C)cc1NC(=O)Nc1ccc(F)cc1 [Example 54, N-(2-carbomethoxy-5-tert-butyl-3-thienyl)-N′-(4-fluorophenyl)urea]",160 to 162 °C
26,"CNC(=O)c1[nH]c(C(C)(C)C)cc1NC(=O)Nc1ccc(C)cc1 [Example 113, N-(2-methylcarbamoyl-5-tert-butyl-3-pyrrolyl)-N′-(4-methylphenyl)urea]",164 to 166 °C
